Reference: patent US3974188A, “Process for producing cholestane type steroids” (The Lion Dentifrice Co., Ltd., priority 1974, dated 1976)

What was measured:
vascular diffusion = assay: Test for inhibition of the acceleration of vascular diffusion (inhibition of cutaneous chromoleaching of rat); type: in vivo; details: for Inhibition rate (%) / Mean blueing area (mm^2 ± S.E.): rat; for Mean blueing area (mm^2 ± S.E.): none: 200 ± 8.0
Source text: 3. Test for inhibition of the acceleration of vascular diffusion
(Test for inhibition of cutaneous chromoleaching of rat)**
**Juduh, J. D. and Willoughby, D.A.; J. Path. Buct., 83, 567 (1962)

sarcomatous growth = assay: Test for inhibition of sarcomatous growth (Rat cotton pellet method); type: in vivo; details: dose 100 mg/kg, 7 rats
Source text: 1. Test for inhibition of sarcomatous growth
(Rat cotton pellet method)*
*Meier, R., Schuler, W. and Desaulees, P. : Experienta, 6, (1950)

mouse = assay: Acute toxicity, LD50; type: in vivo; details: mouse male, 5 weeks; intraperitoneal
Source text: (§1) |LD50 (mouse male, 5 weeks)

[1] = Antiinflammatory effect (overall statement); details: in vivo
Acute toxicity, LD50 = type: in vivo; details: mouse, in vivo, mouse male, 5 weeks
Source text: as §1

Row | Compound | Inhibition rate (%) (vascular diffusion; 50 mg/kg P.C.) | Mean blueing area (mm^2 ± S.E.) (vascular diffusion; 50 mg/kg P.C.) [mm^2] | Inhibition rate (%) (vascular diffusion; 100 mg/kg P.C.) | Mean blueing area (mm^2 ± S.E.) (vascular diffusion; 100 mg/kg P.C.) [mm^2] | Inhibition rate (%) (sarcomatous growth) | acceleration of vascular diffusion (in words) (vascular diffusion; 100 mg/kg) | LD50 (mouse) [mg/kg] | antiinflammatory effect (in words) [1] | LD50 (Acute toxicity, LD50; ip, intraperitoneal) [mg/kg] | LD50 (Acute toxicity, LD50; po) [mg/kg]
1 | CC(C)CCC[C@@H](C)[C@H]1CC[C@H]2[C@@H]3CC[C@H]4C[C@@H](O)CC[C@]4(C)[C@H]3CC[C@]12C [C, cholestanol] | 4.5 | 191 ± 5 | 6 | 188 ± 3 | 4.5 | – | – | – | – | –
2 | CC(C)CCC[C@@H](C)[C@H]1CC[C@H]2[C@@H]3CC[C@H]4C[C@H](OP(=O)(O)O)CC[C@]4(C)[C@H]3CC[C@]12C [epicholestanyl phosphate] | – | – | – | – | – | inhibited | 1850 | – | – | –
3 | CC(C)CCC[C@@H](C)[C@H]1CC[C@H]2[C@@H]3CC[C@H]4C[C@@H](OP(=O)(O)O)CC[C@]4(C)[C@H]3CC[C@]12C [K2 --PEC, dipotassium cholestanyl phosphate] | – | – | – | – | 10.0 | – | – | – | – | –
4 | CC(C)CCC[C@@H](C)[C@H]1CC[C@H]2[C@@H]3CC[C@H]4C[C@H](O)CC[C@]4(C)[C@H]3CC[C@]12C [EC, epicholestanol] | 4.5 | 191 ± 9 | 10 | 180 ± 4 | 6.9 | – | – | – | – | –
5 | CC(C)CCC[C@@H](C)[C@H]1CC[C@H]2[C@@H]3CC[C@H]4C[C@H](OP(=O)(O)O)CC[C@]4(C)[C@H]3CC[C@]12C [dipotassium epicholestanyl phosphate] | 18 | 164 ± 4 | 21 | 158 ± 6 | 21.5 | – | – | remarkably effective as an antiinflammatory agent | 1580 | 9300
